US20200031858A1, “AVERMECTIN DERIVATIVES AS FXR MODULATORS” (Hepagene Therapeutics, Inc., priority 2017, published 2020)

target: T1, FXR-LBD (Farnesoid X Receptor) (Homo sapiens, UniProt Q96RI1); assay: LanthaScreen TR-FRET Farnesoid X Receptor Coactivator Assay; assay type: biochemical; conditions: TR-FRET ratio 520 nm/495 nm; 10 doses, 3-fold serial dilution; GW4064 as positive control
T1 construct: Add 5 μl of 4×FXR-LBD to 384 well assay plates; purchased
T1 sequence (Q96RI1 262-486 limits assumed): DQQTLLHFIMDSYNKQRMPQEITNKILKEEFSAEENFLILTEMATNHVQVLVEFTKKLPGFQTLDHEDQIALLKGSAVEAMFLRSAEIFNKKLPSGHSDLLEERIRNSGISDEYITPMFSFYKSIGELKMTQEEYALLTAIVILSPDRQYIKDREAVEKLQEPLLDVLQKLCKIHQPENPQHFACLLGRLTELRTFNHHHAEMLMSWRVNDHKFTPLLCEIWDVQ
Description: The compounds of the present technology may be assayed using the following procedure and will be shown to have FXR binding activity.
LanthaScreen™ TR-FRET Farnesoid X Receptor Coactivator Assay
GW4064 as a positive control
• 1. All of compounds were 3-fold serial diluted from 10 mM stock for 10 doses in DMSO. • 2. Dilute each 100× agonist serial dilution to 2× using Complete Coregulator buffer G. • 3. Transfer 10 μl of each of the 2× agonist serial dilutions to 384 well assay plates. • 4. Add 5 μl of 4×FXR-LBD to 384 well assay plates. • 5. Add 5 μl of 4× peptide/4× antibody solution to 384 well assay plates. • 6. Incubate at room temperature protected from light. • 7. Read the plate at wavelengths of 520 nm and 495 nm on Envision 2104 plate reader. • 8. Calculate the TR-FRET ratio by dividing the emission signal at 520 nm by the emission signal at 495 nm. • 9. Calculate EC50 by fitting % Activity values and log of compound concentrations to nonlinear regression (dose response−variable slope) with Graphpad 5.0.

SMILES | EC50 [nM]
CO[C@H]1C[C@H](O[C@H]2[C@H](C)O[C@@H](O[C@@H]3/C(C)=C/C[C@@H]4C[C@@H](C[C@]5(C=C[C@H](C)[C@@H](C6CCCCC6)O5)O4)OC(=O)[C@@H]4C=C(C)C(=NO)[C@H]5OC/C(=C\C=C\[C@@H]3C)[C@]54O)C[C@@H]2OC)O[C@@H](C)[C@@H]1O [Compound 31] | 10 to 100
CO[C@H]1C[C@H](O[C@@H]2/C(C)=C/C[C@@H]3C[C@@H](C[C@]4(C=C[C@H](C)[C@@H](C5CCCCC5)O4)O3)OC(=O)[C@@H]3C=C(C)[C@@H](O)[C@H]4OC/C(=C\C=C\[C@@H]2C)[C@]43O)O[C@@H](C)[C@@H]1O [Compound 32] | 101 to 300
CO[C@H]1C[C@H](O[C@@H]2/C(C)=C/C[C@@H]3C[C@@H](C[C@]4(C=C[C@H](C)[C@@H](C5CCCCC5)O4)O3)OC(=O)[C@@H]3C=C(C)C(=NO)[C@H]4OC/C(=C\C=C\[C@@H]2C)[C@]43O)O[C@@H](C)[C@@H]1O [Compound 33] | 10 to 100
CON=C1C(C)=C[C@H]2C(=O)O[C@H]3C[C@@H](C/C=C(\C)[C@@H](O[C@H]4C[C@H](OC)[C@@H](O)[C@H](C)O4)[C@@H](C)/C=C/C=C4\CO[C@H]1[C@@]42O)O[C@@]1(C=C[C@H](C)[C@@H](C2CCCCC2)O1)C3 [Compound 35] | 301 to 1000
